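All cell lines were grown in 96-well plates and treated with compound for 48 hours. TGI is the concentration that stops growth completely.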
tested on: A498 renal; assay: DTP human tumour cell line panel, 48 h

Structure (SMILES)	TGI [µM]
CO/N=C/c1cc(OC)c(OC)c(OC)c1	> 100
CN(C)c1ccc(C(C=C2c3ccccc3Sc3ccccc32)=C(C#N)C#N)cc1	> 100
CN(C)/C=N/c1nc2c(ncn2C2OC(CO)C(O)C2O)c(=O)[nH]1 (centres undefined)	> 100

tested on: A549 NSCLC; assay: DTP human tumour cell line panel, 48 h

Structure (SMILES)	TGI [µM]
O=[N+]([O-])c1ccc(C2=Nn3cnnc3SC2)o1	56.7
S=C1NC2(CCCCCC2)NN1c1ccccc1	> 100
Cc1ccc(Cc2c(=O)[nH]nc3ccccc23)cc1	> 100
COc1cccc(/C=C/c2cc(OC)c(OC)c(OC)c2)c1	> 100
CO/N=C/c1cc(OC)c(OC)c(OC)c1	> 100
CN(C)c1ccc(C(C=C2c3ccccc3Sc3ccccc32)=C(C#N)C#N)cc1	> 100
CN(C)/C=N/c1nc2c(ncn2C2OC(CO)C(O)C2O)c(=O)[nH]1 (centres undefined)	> 100

tested on: CAKI-1 renal; assay: DTP human tumour cell line panel, 48 h

Structure (SMILES)	TGI [µM]
S=C1NC2(CCCCCC2)NN1c1ccccc1	> 100
Cc1ccc(Cc2c(=O)[nH]nc3ccccc23)cc1	> 100
CO/N=C/c1cc(OC)c(OC)c(OC)c1	> 100
CN(C)c1ccc(C(C=C2c3ccccc3Sc3ccccc32)=C(C#N)C#N)cc1	> 100
CN(C)/C=N/c1nc2c(ncn2C2OC(CO)C(O)C2O)c(=O)[nH]1 (centres undefined)	> 100

tested on: NCI-H226 lung; assay: DTP human tumour cell line panel, 48 h

Structure (SMILES)	TGI [µM]
O=[N+]([O-])c1ccc(C2=Nn3cnnc3SC2)o1	67.2
S=C1NC2(CCCCCC2)NN1c1ccccc1	> 100
Cc1ccc(Cc2c(=O)[nH]nc3ccccc23)cc1	> 100
COc1cccc(/C=C/c2cc(OC)c(OC)c(OC)c2)c1	> 100
CO/N=C/c1cc(OC)c(OC)c(OC)c1	> 100
CN(C)/C=N/c1nc2c(ncn2C2OC(CO)C(O)C2O)c(=O)[nH]1 (centres undefined)	> 100

tested on: MALME-3M melanoma; assay: DTP human tumour cell line panel, 48 h

Structure (SMILES)	TGI [µM]
S=C1NC2(CCCCCC2)NN1c1ccccc1	> 100
Cc1ccc(Cc2c(=O)[nH]nc3ccccc23)cc1	> 100
COc1cccc(/C=C/c2cc(OC)c(OC)c(OC)c2)c1	> 100
CO/N=C/c1cc(OC)c(OC)c(OC)c1	> 100
CN(C)c1ccc(C(C=C2c3ccccc3Sc3ccccc32)=C(C#N)C#N)cc1	> 100
CN(C)/C=N/c1nc2c(ncn2C2OC(CO)C(O)C2O)c(=O)[nH]1 (centres undefined)	> 100

tested on: U251 CNS; assay: DTP human tumour cell line panel, 48 h

Structure (SMILES)	TGI [µM]
O=[N+]([O-])c1ccc(C2=Nn3cnnc3SC2)o1	30.1
S=C1NC2(CCCCCC2)NN1c1ccccc1	> 100
COc1cccc(/C=C/c2cc(OC)c(OC)c(OC)c2)c1	> 100
CO/N=C/c1cc(OC)c(OC)c(OC)c1	> 100
CN(C)c1ccc(C(C=C2c3ccccc3Sc3ccccc32)=C(C#N)C#N)cc1	> 100
CN(C)/C=N/c1nc2c(ncn2C2OC(CO)C(O)C2O)c(=O)[nH]1 (centres undefined)	> 100

tested on: IGROV1 ovarian; assay: DTP human tumour cell line panel, 48 h

Structure (SMILES)	TGI [µM]
S=C1NC2(CCCCCC2)NN1c1ccccc1	> 100
Cc1ccc(Cc2c(=O)[nH]nc3ccccc23)cc1	> 100
COc1cccc(/C=C/c2cc(OC)c(OC)c(OC)c2)c1	> 100
CO/N=C/c1cc(OC)c(OC)c(OC)c1	> 100
CN(C)c1ccc(C(C=C2c3ccccc3Sc3ccccc32)=C(C#N)C#N)cc1	> 100
CN(C)/C=N/c1nc2c(ncn2C2OC(CO)C(O)C2O)c(=O)[nH]1 (centres undefined)	> 100

tested on: DU-145 prostate; assay: DTP human tumour cell line panel, 48 h

Structure (SMILES)	TGI [µM]
S=C1NC2(CCCCCC2)NN1c1ccccc1	> 100

tested on: KM20L2 colon; assay: DTP human tumour cell line panel, 48 h

Structure (SMILES)	TGI [µM]
Cc1ccc(Cc2c(=O)[nH]nc3ccccc23)cc1	> 100
COc1cccc(/C=C/c2cc(OC)c(OC)c(OC)c2)c1	87.7
CO/N=C/c1cc(OC)c(OC)c(OC)c1	> 100
CN(C)c1ccc(C(C=C2c3ccccc3Sc3ccccc32)=C(C#N)C#N)cc1	> 100
CN(C)/C=N/c1nc2c(ncn2C2OC(CO)C(O)C2O)c(=O)[nH]1 (centres undefined)	> 100

tested on: MOLT-4 leukemia; assay: DTP human tumour cell line panel, 48 h

Structure (SMILES)	TGI [µM]
O=[N+]([O-])c1ccc(C2=Nn3cnnc3SC2)o1	43.2
S=C1NC2(CCCCCC2)NN1c1ccccc1	> 100
Cc1ccc(Cc2c(=O)[nH]nc3ccccc23)cc1	> 100
COc1cccc(/C=C/c2cc(OC)c(OC)c(OC)c2)c1	> 100
CO/N=C/c1cc(OC)c(OC)c(OC)c1	> 100
CN(C)c1ccc(C(C=C2c3ccccc3Sc3ccccc32)=C(C#N)C#N)cc1	> 100
CN(C)/C=N/c1nc2c(ncn2C2OC(CO)C(O)C2O)c(=O)[nH]1 (centres undefined)	> 100

tested on: HCT-116 colon; assay: DTP human tumour cell line panel, 48 h

Structure (SMILES)	TGI [µM]
O=[N+]([O-])c1ccc(C2=Nn3cnnc3SC2)o1	30.8
Cc1ccc(Cc2c(=O)[nH]nc3ccccc23)cc1	> 100
COc1cccc(/C=C/c2cc(OC)c(OC)c(OC)c2)c1	> 100
CO/N=C/c1cc(OC)c(OC)c(OC)c1	> 100
CN(C)c1ccc(C(C=C2c3ccccc3Sc3ccccc32)=C(C#N)C#N)cc1	> 100
CN(C)/C=N/c1nc2c(ncn2C2OC(CO)C(O)C2O)c(=O)[nH]1 (centres undefined)	> 100

tested on: HCC-2998 colon; assay: DTP human tumour cell line panel, 48 h

Structure (SMILES)	TGI [µM]
O=[N+]([O-])c1ccc(C2=Nn3cnnc3SC2)o1	29.2
Cc1ccc(Cc2c(=O)[nH]nc3ccccc23)cc1	> 100
COc1cccc(/C=C/c2cc(OC)c(OC)c(OC)c2)c1	> 100
CO/N=C/c1cc(OC)c(OC)c(OC)c1	> 100
CN(C)c1ccc(C(C=C2c3ccccc3Sc3ccccc32)=C(C#N)C#N)cc1	> 100
CN(C)/C=N/c1nc2c(ncn2C2OC(CO)C(O)C2O)c(=O)[nH]1 (centres undefined)	> 100

tested on: MDA-MB-231 breast; assay: DTP human tumour cell line panel, 48 h

Structure (SMILES)	TGI [µM]
S=C1NC2(CCCCCC2)NN1c1ccccc1	> 100

tested on: OVCAR-8 ovarian; assay: DTP human tumour cell line panel, 48 h

Structure (SMILES)	TGI [µM]
O=[N+]([O-])c1ccc(C2=Nn3cnnc3SC2)o1	53.9
S=C1NC2(CCCCCC2)NN1c1ccccc1	> 100
Cc1ccc(Cc2c(=O)[nH]nc3ccccc23)cc1	> 100
COc1cccc(/C=C/c2cc(OC)c(OC)c(OC)c2)c1	> 100
CO/N=C/c1cc(OC)c(OC)c(OC)c1	> 100
CN(C)c1ccc(C(C=C2c3ccccc3Sc3ccccc32)=C(C#N)C#N)cc1	> 100
CN(C)/C=N/c1nc2c(ncn2C2OC(CO)C(O)C2O)c(=O)[nH]1 (centres undefined)	> 100

tested on: OVCAR-4 ovarian; assay: DTP human tumour cell line panel, 48 h

Structure (SMILES)	TGI [µM]
S=C1NC2(CCCCCC2)NN1c1ccccc1	> 100
Cc1ccc(Cc2c(=O)[nH]nc3ccccc23)cc1	> 100
CO/N=C/c1cc(OC)c(OC)c(OC)c1	> 100
CN(C)c1ccc(C(C=C2c3ccccc3Sc3ccccc32)=C(C#N)C#N)cc1	50.1
CN(C)/C=N/c1nc2c(ncn2C2OC(CO)C(O)C2O)c(=O)[nH]1 (centres undefined)	> 100

tested on: DLD-1 colon; assay: DTP human tumour cell line panel, 48 h

Structure (SMILES)	TGI [µM]
O=[N+]([O-])c1ccc(C2=Nn3cnnc3SC2)o1	41.4
S=C1NC2(CCCCCC2)NN1c1ccccc1	> 100
Cc1ccc(Cc2c(=O)[nH]nc3ccccc23)cc1	> 100
COc1cccc(/C=C/c2cc(OC)c(OC)c(OC)c2)c1	> 100
CO/N=C/c1cc(OC)c(OC)c(OC)c1	> 100
CN(C)c1ccc(C(C=C2c3ccccc3Sc3ccccc32)=C(C#N)C#N)cc1	> 100
CN(C)/C=N/c1nc2c(ncn2C2OC(CO)C(O)C2O)c(=O)[nH]1 (centres undefined)	> 100

tested on: TK-10 renal; assay: DTP human tumour cell line panel, 48 h

Structure (SMILES)	TGI [µM]
O=[N+]([O-])c1ccc(C2=Nn3cnnc3SC2)o1	> 100
S=C1NC2(CCCCCC2)NN1c1ccccc1	> 100
Cc1ccc(Cc2c(=O)[nH]nc3ccccc23)cc1	> 100
CO/N=C/c1cc(OC)c(OC)c(OC)c1	> 100
CN(C)c1ccc(C(C=C2c3ccccc3Sc3ccccc32)=C(C#N)C#N)cc1	> 100
CN(C)/C=N/c1nc2c(ncn2C2OC(CO)C(O)C2O)c(=O)[nH]1 (centres undefined)	> 100

tested on: KM12 colon; assay: DTP human tumour cell line panel, 48 h

Structure (SMILES)	TGI [µM]
O=[N+]([O-])c1ccc(C2=Nn3cnnc3SC2)o1	47.6
S=C1NC2(CCCCCC2)NN1c1ccccc1	> 100
Cc1ccc(Cc2c(=O)[nH]nc3ccccc23)cc1	> 100
COc1cccc(/C=C/c2cc(OC)c(OC)c(OC)c2)c1	> 100
